Results published in publication PMC9023544, “Ketone-selenoesters as potential anticancer and multidrug resistance modulation agents in 2D and 3D ovarian and breast cancer in vitro models” (Scientific Reports, 2022).

Tested on: ABC superfamily genes in MCF-7/PAX
Assay: Expression of genes encoding ABC transporters, qPCR
Type: cell-based, human
Protocol: Based on the fact that compounds K3, K4, K7 sensitized drug-resistant cell lines (HOC/ADR, MCF-7/PAX) and modulated ATPase activity of one from the ABC proteins (P-gp), we verified the potential of these compounds to affect ABC superfamily gene expression. The ovarian and breast cancer cell lines (parental cells and resistant sub-line) were analysed for the expression profile of genes encoding the ABC proteins in the previous works[18]–[20]. […] After 48 h, the effect of compounds alone or in the combination with cytostatics was observed (Supplementary Tables 1, Table 2).
To determine the impact of selected compounds on the expression of genes encoding ABC transporter, HOC/ADR and MCF-7/PAX cells were seeded for 24 h into 5 cm Petri dishes with DMEM medium at the cell density 1 × 10^5 cells/mL. Afterwards, the cells were washed 1× with PBS and new fresh DMEM supplemented with K3, K4, and K7 (in concentration corresponding to their IC10 value) alone or combined with cytostatics (Adriamycin or paclitaxel in concentration corresponding to their IC25 value) was added. In the experiment, positive and negative control was also included (positive—untreated cells, negative—cells treated only with cytostatics). After 48 h exposure, the cells were washed once with PBS and released from the surface by using the above-mentioned trypsin–EDTA procedure. The enzyme reaction was stopped by medium addition and the cells were centrifuged (3200×g; 10 min, 4 °C). The supernatants were removed and before the next centrifugation, the pellets were resuspended in 1.5 mL of cooled PBS (5400×g; 10 min, 4 °C). After the second washing step, the cells were centrifuged another time (10,000×g; 3 min, 4 °C). Subsequently, 1 mL of Trizol (Invitrogen) was added to the pellets and the compounds were stored − 80 °C.
The RNA concentration of selenoester treated samples was determined using QuantiT RiboGreen RNA Assay Kit and Infinite M200 plate reader (Tecan, Männedor, Switzerland). The cDNA was synthesized from 0.5 µg of total RNA by RevertAid First Strand Synthesis cDNA Kit (MBI Fermentas, Vilnius, Lithuania). To determine the quality of cDNA, the ubiquitin C gene fragment was amplified. The experiment was performed in 384-well block by using ViiA7 Real-Time PCR System (Life Technologies, Camarillo, California, United States). A master mix contained 0.25 µL of 20× TaqMan Gene Expression Assay, 1 µL of 5× HotFIREPol Probe qPCR Mix Plus, 1.75 µL of RNase free water and 2 µL of 8× diluted cDNA. The final reaction volume was 5 µL. The PCR parameters were as follows: initial hold (50 °C for 2 min), denaturation (95 °C for 10 min), followed by 45 cycles (denaturation at 95 °C for 15 s, annealing at 60 °C for 1 min). After each cycle, the fluorescent signal was determined. For each compound, duplicates were analysed and those with a standard deviation higher than 0.5 Ct were re-analysed. A quantitate real-time PCR was followed by MIQE guidelines. To compare the relative transcript levels of genes, the software REST 2009 (Qiagen, Hilden, Germany) was used.
Table 2. Effect of selenoesters either on the expression of the ABC gene superfamily in paclitaxel-resistant breast cancer cell line (MCF-7/PAX).
Gene expression of ABC transporters were estimated using comercial predesigned Taqman Gene Expression Assays (Life technologies). TaqMan Gene Expression Assays are based on 5´ nuclease chemistry, and each assay contains the primer and probe set for target of interest. Taqman assays IDs and GenBank Accession numbers of reference sequencies identifying their location and amplicon lengths are included in the Supplementary Table I. * Relative transcript levels (P-value ) in treated and non-treated cancer cell lines were compared using REST 2009 software.

CC(=O)C[Se]C(=O)c1ccccc1C(F)(F)F [K4]
number of ABC genes with altered expression: 31 | ABCA2 Expression Difference (IC10 alone, 48 h): 0.282 | ABCA2 Treated vs. Untr. (IC10 alone, 48 h): DOWN | ABCA3 Expression Difference (IC10 alone, 48 h): 0.766 | ABCA3 Treated vs. Untr. (IC10 alone, 48 h): DOWN | ABCA4 Expression Difference (IC10 alone, 48 h): 40.43 | ABCA5 Expression Difference (IC10 alone, 48 h): 0.789 | ABCA5 Treated vs. Untr. (IC10 alone, 48 h): DOWN | ABCA7 Expression Difference (IC10 alone, 48 h): 0.757 | ABCA7 Treated vs. Untr. (IC10 alone, 48 h): DOWN | ABCA12 Expression Difference (IC10 alone, 48 h): 1.702 | ABCB1 Expression Difference (IC10 alone, 48 h): 0.568 | ABCB1 Treated vs. Untr. (IC10 alone, 48 h): DOWN | ABCB2 Expression Difference (IC10 alone, 48 h): 0.467 | ABCB2 Treated vs. Untr. (IC10 alone, 48 h): DOWN | ABCB3 Expression Difference (IC10 alone, 48 h): 0.323 | ABCB3 Treated vs. Untr. (IC10 alone, 48 h): DOWN | ABCB6 Expression Difference (IC10 alone, 48 h): 0.524 | ABCB6 Treated vs. Untr. (IC10 alone, 48 h): DOWN | ABCB7 Expression Difference (IC10 alone, 48 h): 0.214 | ABCB7 Treated vs. Untr. (IC10 alone, 48 h): DOWN | ABCB8 Expression Difference (IC10 alone, 48 h): 0.683 | ABCB8 Treated vs. Untr. (IC10 alone, 48 h): DOWN | ABCB9 Expression Difference (IC10 alone, 48 h): 0.639 | ABCB9 Treated vs. Untr. (IC10 alone, 48 h): DOWN | ABCB10 Expression Difference (IC10 alone, 48 h): 1.163 | ABCC1 Expression Difference (IC10 alone, 48 h): 0.398 | ABCC1 Treated vs. Untr. (IC10 alone, 48 h): DOWN | ABCC2 Expression Difference (IC10 alone, 48 h): 0.127 | ABCC2 Treated vs. Untr. (IC10 alone, 48 h): DOWN | ABCC3 Expression Difference (IC10 alone, 48 h): 26.21 | ABCC4 Expression Difference (IC10 alone, 48 h): 0.316 | ABCC4 Treated vs. Untr. (IC10 alone, 48 h): DOWN | ABCC5 Expression Difference (IC10 alone, 48 h): 1.378 | ABCC6 Expression Difference (IC10 alone, 48 h): 2.041 | ABCC8 Expression Difference (IC10 alone, 48 h): 1.590 | ABCC10 Expression Difference (IC10 alone, 48 h): 0.265 | ABCC10 Treated vs. Untr. (IC10 alone, 48 h): DOWN | ABCD1 Expression Difference (IC10 alone, 48 h): 0.179 | ABCD1 Treated vs. Untr. (IC10 alone, 48 h): DOWN | ABCD3 Expression Difference (IC10 alone, 48 h): 0.365 | ABCD3 Treated vs. Untr. (IC10 alone, 48 h): DOWN | ABCD4 Expression Difference (IC10 alone, 48 h): 1.288 | ABCE1 Expression Difference (IC10 alone, 48 h): 0.795 | ABCE1 Treated vs. Untr. (IC10 alone, 48 h): DOWN | ABCF1 Expression Difference (IC10 alone, 48 h): 3.646 | ABCF2 Expression Difference (IC10 alone, 48 h): 0.942 | ABCF3 Expression Difference (IC10 alone, 48 h): 0.753 | ABCF3 Treated vs. Untr. (IC10 alone, 48 h): DOWN | ABCG1 Expression Difference (IC10 alone, 48 h): 0.325 | ABCG1 Treated vs. Untr. (IC10 alone, 48 h): DOWN | ABCG2 Expression Difference (IC10 alone, 48 h): 0.378 | ABCG2 Treated vs. Untr. (IC10 alone, 48 h): DOWN | ABCG4 Expression Difference (IC10 alone, 48 h): 0.412 | ABCG4 Treated vs. Untr. (IC10 alone, 48 h): DOWN | decrease of expression of ABCB1 (P-gp) encoding gene (IC10 alone, 48 h): 43% | downregulation of expression of ABCC1 (MRP1) (IC10 alone, 48 h): 60% | downregulation of expression of ABCG2 (IC10 alone, 48 h): 62%

CC(=O)C[Se]C(=O)c1ccc(C(C)(C)C)cc1 [K7]
number of ABC genes with altered expression: 32 | ABCA2 Expression Difference (IC10 alone, 48 h): 0.159 | ABCA2 Treated vs. Untr. (IC10 alone, 48 h): DOWN | ABCA3 Expression Difference (IC10 alone, 48 h): 0.376 | ABCA3 Treated vs. Untr. (IC10 alone, 48 h): DOWN | ABCA4 Expression Difference (IC10 alone, 48 h): 20.68 | ABCA5 Expression Difference (IC10 alone, 48 h): 0.600 | ABCA5 Treated vs. Untr. (IC10 alone, 48 h): DOWN | ABCA7 Expression Difference (IC10 alone, 48 h): 0.384 | ABCA7 Treated vs. Untr. (IC10 alone, 48 h): DOWN | ABCA12 Expression Difference (IC10 alone, 48 h): 0.745 | ABCA12 Treated vs. Untr. (IC10 alone, 48 h): DOWN | ABCB1 Expression Difference (IC10 alone, 48 h): 0.361 | ABCB1 Treated vs. Untr. (IC10 alone, 48 h): DOWN | ABCB2 Expression Difference (IC10 alone, 48 h): 0.274 | ABCB2 Treated vs. Untr. (IC10 alone, 48 h): DOWN | ABCB3 Expression Difference (IC10 alone, 48 h): 0.164 | ABCB3 Treated vs. Untr. (IC10 alone, 48 h): DOWN | ABCB6 Expression Difference (IC10 alone, 48 h): 0.305 | ABCB6 Treated vs. Untr. (IC10 alone, 48 h): DOWN | ABCB7 Expression Difference (IC10 alone, 48 h): 0.131 | ABCB7 Treated vs. Untr. (IC10 alone, 48 h): DOWN | ABCB8 Expression Difference (IC10 alone, 48 h): 0.407 | ABCB8 Treated vs. Untr. (IC10 alone, 48 h): DOWN | ABCB9 Expression Difference (IC10 alone, 48 h): 0.340 | ABCB9 Treated vs. Untr. (IC10 alone, 48 h): DOWN | ABCB10 Expression Difference (IC10 alone, 48 h): 0.822 | ABCB10 Treated vs. Untr. (IC10 alone, 48 h): DOWN | ABCC1 Expression Difference (IC10 alone, 48 h): 0.238 | ABCC1 Treated vs. Untr. (IC10 alone, 48 h): DOWN | ABCC2 Expression Difference (IC10 alone, 48 h): 0.061 | ABCC2 Treated vs. Untr. (IC10 alone, 48 h): DOWN | ABCC3 Expression Difference (IC10 alone, 48 h): 15.69 | ABCC4 Expression Difference (IC10 alone, 48 h): 0.213 | ABCC4 Treated vs. Untr. (IC10 alone, 48 h): DOWN | ABCC5 Expression Difference (IC10 alone, 48 h): 0.933 | ABCC5 Treated vs. Untr. (IC10 alone, 48 h): DOWN | ABCC6 Expression Difference (IC10 alone, 48 h): 0.424 | ABCC6 Treated vs. Untr. (IC10 alone, 48 h): DOWN | ABCC8 Expression Difference (IC10 alone, 48 h): 0.651 | ABCC8 Treated vs. Untr. (IC10 alone, 48 h): DOWN | ABCC10 Expression Difference (IC10 alone, 48 h): 0.170 | ABCC10 Treated vs. Untr. (IC10 alone, 48 h): DOWN | ABCD1 Expression Difference (IC10 alone, 48 h): 0.104 | ABCD1 Treated vs. Untr. (IC10 alone, 48 h): DOWN | ABCD3 Expression Difference (IC10 alone, 48 h): 0.247 | ABCD3 Treated vs. Untr. (IC10 alone, 48 h): DOWN | ABCD4 Expression Difference (IC10 alone, 48 h): 0.872 | ABCD4 Treated vs. Untr. (IC10 alone, 48 h): DOWN | ABCE1 Expression Difference (IC10 alone, 48 h): 0.505 | ABCE1 Treated vs. Untr. (IC10 alone, 48 h): DOWN | ABCF1 Expression Difference (IC10 alone, 48 h): 2.263 | ABCF2 Expression Difference (IC10 alone, 48 h): 0.601 | ABCF2 Treated vs. Untr. (IC10 alone, 48 h): DOWN | ABCF3 Expression Difference (IC10 alone, 48 h): 0.484 | ABCF3 Treated vs. Untr. (IC10 alone, 48 h): DOWN | ABCG1 Expression Difference (IC10 alone, 48 h): 0.307 | ABCG1 Treated vs. Untr. (IC10 alone, 48 h): DOWN | ABCG2 Expression Difference (IC10 alone, 48 h): 0.207 | ABCG2 Treated vs. Untr. (IC10 alone, 48 h): DOWN | ABCG4 Expression Difference (IC10 alone, 48 h): 0.188 | ABCG4 Treated vs. Untr. (IC10 alone, 48 h): DOWN | decrease of expression of ABCB1 (P-gp) encoding gene (IC10 alone, 48 h): 64% | downregulation of expression of ABCC1 (MRP1) (IC10 alone, 48 h): 76% | downregulation of expression of ABCG2 (IC10 alone, 48 h): 80%
